The target in one experiment is T1, HO-1 (rat spleen) (Rattus norvegicus, UniProt P06762).
T1 construct: Spleen microsomes were used as a source of HO-1; from tissue; host or cells: spleen microsomal fraction of adult male Sprague-Dawley rats
T1 sequence (P06762 1-289): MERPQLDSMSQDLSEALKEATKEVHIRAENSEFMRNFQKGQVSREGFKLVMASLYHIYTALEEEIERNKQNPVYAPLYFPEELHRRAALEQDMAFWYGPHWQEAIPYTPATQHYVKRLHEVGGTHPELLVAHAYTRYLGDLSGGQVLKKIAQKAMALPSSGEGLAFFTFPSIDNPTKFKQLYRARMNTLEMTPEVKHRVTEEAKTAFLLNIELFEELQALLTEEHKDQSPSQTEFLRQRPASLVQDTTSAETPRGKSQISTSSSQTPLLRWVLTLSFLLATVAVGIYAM
The experiment can be described thus: HO enzymatic activity in rat spleen microsomal fraction (CO formed from methemalbumin, gas chromatography). Format: biochemical. How it is done:
(§1) Incubations for HO activity analysis were done under conditions for which the rate of CO formation (pmol CO×min^−1×mg protein^−1) was linear with respect to time and microsomal protein concentration. Briefly, reaction mixtures (150 μL) consisting of 100 mM phosphate buffer (pH 7.4), 50 μM methemalbumin, and 1 mg/mL protein were pre-incubated with the inhibitors at final concentrations ranging from 0.1-100 μM for 10 minutes at 37° C. Reactions were initiated by adding NADPH at a final concentration of 1 mM and incubations were performed for an additional 15 minutes at 37° C.
(§2) Incubations for HO activity analysis were done under conditions for which the rate of CO formation (pmol CO/mg protein/minute) was linear with respect to time and microsomal protein concentration. Briefly, reaction mixtures (150 μL) consisting of 100 mM phosphate buffer (pH 7.4), 50 μM methemalbumin and 1 mg/mL protein were pre-incubated with the vehicle (ethanol or water in which the inhibitors were dissolved), or inhibitors at final concentrations ranging from 0.1-1000 μM for 10 minutes at 37° C. Reactions were initiated by adding β-NADPH at a final concentration of 1 mM and incubations were carried out for an additional 15 minutes at 37° C. Reactions were stopped by instantly freezing the reaction mixture on pulverized dry ice and CO formation was measured by gas chromatography using a TA 3000R Process Gas Analyzer (Trace Analytical/Ametek, Newark, Del., USA).
(§3) The values on the abscissa represent the decimal logarithm of the inhibitor's concentration (in μM), whereas the values of the activity on the ordinate are expressed as a percentage of the control experiments without inhibitor.
(§4) The IC50 values for the replicate experiments were employed to generate the reported standard deviation value.

The target of the next experiment is T2, HO-2 (rat brain) (Rattus norvegicus, UniProt P23711).
T2 construct: brain microsomes were used as a source of HO-2; from tissue; host or cells: brain microsomal fraction of adult male Sprague-Dawley rats
T2 sequence (P23711 1-315): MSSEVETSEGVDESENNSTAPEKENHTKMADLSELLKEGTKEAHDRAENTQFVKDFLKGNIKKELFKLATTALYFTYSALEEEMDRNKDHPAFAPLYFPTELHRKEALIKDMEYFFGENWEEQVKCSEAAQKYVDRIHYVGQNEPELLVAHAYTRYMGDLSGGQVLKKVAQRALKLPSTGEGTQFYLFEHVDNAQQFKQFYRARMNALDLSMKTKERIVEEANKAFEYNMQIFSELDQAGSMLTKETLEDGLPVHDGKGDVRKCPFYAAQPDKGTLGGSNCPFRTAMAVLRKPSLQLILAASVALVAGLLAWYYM
The experiment can be described thus: HO enzymatic activity in rat brain microsomal fraction (CO formed from methemalbumin, gas chromatography). Format: biochemical. How it is done:
as §1, §2, §3, §4

Where [1] appears, read: rat spleen microsomes, average ± standard deviation of replicate experiments, read-out: IC50 HO-1 (rat spleen)/μM.
Setting [2] is: rat brain microsomes, average ± standard deviation of replicate experiments, read-out: IC50 HO-2 (rat brain)/μM.

Structures can show the parent of a compound that is named as a salt. Where two headings read alike, the source gives them in different places. Where only a bound is given, the exact number is not on record here.

`Clc1ccc(C2(Cn3ccnc3)OCCO2)cc1` [1-[2-(4-chloro-phenyl)-[1,3]dioxolan-2-ylmethyl]-1H-imidazole hydrochloride]: the IC50 at HO-1 (rat spleen) (setting [1]) is 19 ± 3 µM; on HO-2 (rat brain) (setting [2]) it was greater than 100 µM.

For the compound `OC(CCc1ccccc1)Cn1ncnn1` (racemic) [(±)-4-phenyl-1-tetrazol-2-yl-butan-2-ol hydrochloride], the IC50 on HO-1 (rat spleen) and at HO-2 (rat brain) was greater than 100 µM throughout.

As for `O=C(CCc1ccc([N+](=O)[O-])cc1)Cn1ccnc1` [1-(1H-Imidazol-1-yl)-4-(4-nitro-phenyl)-butan-2-one hydrochloride], the IC50 worked out at 1.8 ± 0.4 µM at HO-1 (rat spleen) (setting [1]) and 6.2 ± 0.1 µM at HO-2 (rat brain) (setting [2]).

On to `O=C(CCn1ccnc1)C12CC3CC(CC(C3)C1)C2` [1-adamantan-1-yl-3-imidazol-1-yl-propan-1-one hydrochloride], for which the IC50 is 3.5 ± 0.8 µM at HO-1 (rat spleen) (setting [1]) and roughly 100 µM at HO-2 (rat brain) (setting [2]).

`COCC1CO[C@@](CCc2ccc(Cl)cc2)(Cn2ccnc2)O1` (stereo in doubt) [(2R,4S)-1-{2-[2-(4-chloro-phenyl)-ethyl]-4-methoxymethyl-[1,3]dioxolan-2-ylmethyl}-1H-imidazole hydrochloride]: the values for the IC50 at HO-1 (rat spleen) (setting [1]) and on HO-2 (rat brain) (setting [2]) were 1.73 ± 0.01 µM and 3.3 ± 0.9 µM, respectively.

Consider `c1ccc(CCC2(Cn3ncnn3)OCCO2)cc1` [2-(2-Phenethyl-[1,3]dioxolan-2-ylmethyl)-2H-tetrazole hydrochloride], for which the IC50 on HO-1 (rat spleen) (setting [1]) was 72 ± 1 µM; at HO-2 (rat brain) (setting [2]) it was greater than 100 µM.

For `O=C(CCc1ccccc1)Cn1nnc(-c2ccccc2)n1` [4-Phenyl-1-(5-phenyl-tetrazol-2-yl)-butan-2-one], the IC50 at HO-1 (rat spleen) (setting [1]) and on HO-2 (rat brain) (setting [2]) was greater than 100 µM throughout.

Consider `O=C(Cn1cncn1)c1ccc2ccccc2c1` [1-Naphthalen-2-yl-2-[1,2,4]triazol-1-yl-ethanone hydrochloride], for which the IC50 on HO-1 (rat spleen) (setting [1]) was found to be 0.7 ± 0.1 µM; at HO-2 (rat brain) (setting [2]), 42 ± 10 µM.

Consider `O=C(Cn1ccnc1)c1ccc(CCc2ccccc2)cc1` [2-imidazol-1-yl-1-(4-phenethyl-phenyl)ethanone hydrochloride], for which the IC50 on HO-1 (rat spleen) (setting [1]) was found to be 4 ± 2 µM; on HO-2 (rat brain) (setting [2]), 0.9 ± 0.1 µM.

For the compound `O=C(CCc1ccccc1)Cn1cnc(-c2ccccc2)c1` [drawing 256, 4-Phenyl-1-(4-phenyl-1H-imidazol-1-yl)-butan-2-one hydrochloride], the IC50 at HO-1 (rat spleen) (setting [1]) is 32 ± 2 µM; on HO-2 (rat brain) (setting [2]), greater than 100 µM.

As for `O=C(Cn1ccnc1)c1ccc2c(c1)OCCO2` [1-(2,3-dihydro-benzo[1,4]dioxin-6-yl)-2-imidazol-1-yl-ethanone hydrochloride], the results for the IC50 on HO-1 (rat spleen) (setting [1]) and on HO-2 (rat brain) (setting [2]) were 73 ± 10 µM and greater than 100 µM, respectively.

Take `[N-]=[N+]=NCC(=O)c1ccc(Br)cc1`: the IC50 on HO-1 (rat spleen) (setting [1]) and on HO-2 (rat brain) (setting [2]) was greater than 100 µM throughout.

Take `O=C(Cn1cncn1)c1cccc2ccccc12` [1-naphthalen-1-yl-2-[1,2,4]triazol-1-yl-ethanone hydrochloride]: the IC50 on HO-1 (rat spleen) (setting [1]) worked out at 0.79 ± 0.04 µM; at HO-2 (rat brain) (setting [2]), 16 ± 5 µM.

Turning to `Clc1ccc(CC[C@@]2(Cn3ccnc3)OC[C@@H](CSc3cccc(Br)c3)O2)cc1` [(2R,4S)-1-{4-(3-bromo-phenylsulfanylmethyl)-2-[2-(4-chloro-phenyl)-ethyl]-[1,3]dioxolan-2-ylmethyl}-1H-imidazole hydrochloride], the IC50 at HO-1 (rat spleen) (setting [1]) is 5 ± 2 µM; at HO-2 (rat brain) (setting [2]), 22 ± 9 µM.

As for `Cn1ccnc1` [1-methylimidazole hydrochloride, reference compound], the IC50 on HO-1 (rat spleen) (setting [1]) and at HO-2 (rat brain) (setting [2]) was greater than 100 µM each time.

Consider `CCC(=O)Cn1ccnc1` [1-(1H-Imidazol-1-yl)-butan-2-one hydrochloride], for which the IC50 on HO-1 (rat spleen) (setting [1]) and on HO-2 (rat brain) (setting [2]) was greater than 100 µM throughout.

Consider `Clc1ccc(C2(Cn3ccnc3)OCCO2)cc1Cl` [1-[2-(3,4-dichloro-phenyl)-[1,3]dioxolan-2-ylmethyl]-1H-imidazole], for which the IC50 on HO-1 (rat spleen) (setting [1]) is 8 ± 2 µM; at HO-2 (rat brain) (setting [2]), greater than 100 µM.

As for Imidazole [reference compound], the IC50 at HO-1 (rat spleen) (setting [1]) and on HO-2 (rat brain) (setting [2]) was greater than 100 µM in each case.

For the compound `O=C(Cc1ccccc1)C(Cn1ccnc1)c1ccccc1` (racemic) [(±)-4-(1H-imidazol-1-yl)-1,3-diphenyl-butan-2-one hydrochloride], the IC50 is 3.85 ± 0.07 µM at HO-1 (rat spleen) (setting [1]) and greater than 100 µM on HO-2 (rat brain) (setting [2]).

Regarding `COC(=O)Nc1nc2ccc(Sc3ccccc3)cc2[nH]1` [Fenbendazol, reference compound], the IC50 at HO-1 (rat spleen) (setting [1]) and on HO-2 (rat brain) (setting [2]) was greater than 100 µM in each case.

`O=C1c2ccccc2CC1n1ccnc1` (racemic) [(±)-2-imidazol-1-yl-indan-1-one hydrochloride]: the IC50 at HO-1 (rat spleen) (setting [1]) and at HO-2 (rat brain) (setting [2]) was greater than 100 µM each time.

With `O=C(CCc1ccccc1)Cn1cnc(-c2ccccc2)c1` [drawing 162, 4-Phenyl-1-(4-phenyl-imidazol-1-yl)-butan-2-one hydrochloride], the IC50 was 32 ± 2 µM at HO-1 (rat spleen) (setting [1]) and greater than 100 µM at HO-2 (rat brain) (setting [2]).

`O=C(Cn1cncn1)c1ccc(Cl)c(Cl)c1` [1-(3,4-Dichloro-phenyl)-2-[1,2,4]triazol-1-yl-ethanone hydrochloride]: the IC50 on HO-1 (rat spleen) (setting [1]) is 1.3 ± 0.5 µM; at HO-2 (rat brain) (setting [2]) it was greater than 100 µM.

For `Clc1ccc(C2(Cn3ccnc3)OCCO2)c(Cl)c1` [1-[2-(2,4-dichloro-phenyl)-[1,3]dioxolan-2-ylmethyl]-1H-imidazole hydrochloride], the results for the IC50 at HO-1 (rat spleen) (setting [1]) and at HO-2 (rat brain) (setting [2]) were 29 ± 14 µM and greater than 100 µM, respectively.

Take `O=C(CCCc1ccccc1)Cn1ccnc1` [1-imidazol-1-yl-5-phenyl-pentan-2-one hydrochloride]: the IC50 on HO-1 (rat spleen) (setting [1]) came out at 1.5 ± 0.2 µM; on HO-2 (rat brain) (setting [2]), 6 ± 0.1 µM.

For the compound `O=C(CCn1ccnc1)C(c1ccccc1)c1ccccc1` [4-(1H-Imidazol-1-yl)-1,1-diphenyl-butan-2-one hydrochloride], the IC50 on HO-1 (rat spleen) (setting [1]) stood at 2.6 ± 0.1 µM; at HO-2 (rat brain) (setting [2]) it was 2.2 ± 0.2 µM.

Take `c1cn(CCCCCCCCCCCCn2ccnc2)cn1` [1,12-bis-(1H-imidazol-1-yl)dodecane dihydrochloride]: the IC50 is roughly 4 µM at HO-1 (rat spleen) (setting [1]) and roughly 9 µM at HO-2 (rat brain) (setting [2]).

Take `Fc1ccc(SC[C@@H]2CO[C@@](CCc3ccc(Cl)cc3)(Cn3ccnc3)O2)cc1` [(2R,4S)-2-[2-(4-chlorophenyl)ethyl]-2-[(1H-imidazol-1-yl)methyl]-4-[{(4-fluorophenyl)thio}meth-yl]-1,3-dioxolane hydrochloride]: the IC50 is 2.2 ± 0.2 µM on HO-1 (rat spleen) (setting [1]) and 5 ± 4 µM on HO-2 (rat brain) (setting [2]).

Take `c1cn(CC23CC4CC(CC(C4)C2)C3)cn1` [1-adamantan-1-ylmethyl-1H-imidazole hydrochloride]: the IC50 on HO-1 (rat spleen) (setting [1]) was 2.2 ± 0.5 µM; at HO-2 (rat brain) (setting [2]), greater than 100 µM.

As to `c1ccc(CCCn2ccnc2)cc1` [1-(3-Phenyl-propyl)-1H-imidazole hydrochloride], the IC50 on HO-1 (rat spleen) (setting [1]) is 14 ± 4 µM; at HO-2 (rat brain) (setting [2]), greater than 100 µM.

Turning to `c1ccc2c(CCn3ccnc3)c[nH]c2c1` [3-[2-(1H-Imidazol-1-yl)-ethyl]-1H-indole hydrochloride], the values for the IC50 on HO-1 (rat spleen) (setting [1]) and at HO-2 (rat brain) (setting [2]) were 40 ± 7 µM and greater than 100 µM, respectively.

For the compound `O=C(CCc1ccccc1)Cn1ccnc1-c1ccccc1` [4-phenyl-1-(2-phenyl-imidazol-1-yl)butan-2-one hydrochloride], the IC50 at HO-1 (rat spleen) (setting [1]) and at HO-2 (rat brain) (setting [2]) was greater than 100 µM each time.

With `c1ccc(OCCCn2ccnc2)cc1` [1-(3-phenoxy-propyl)-1H-imidazole hydrochloride], the results for the IC50 at HO-1 (rat spleen) (setting [1]) and on HO-2 (rat brain) (setting [2]) were 42 ± 13 µM and 206 ± 96 µM, respectively.

In the case of `Cc1ccc(S(=O)(=O)OC[C@H]2CO[C@](CCc3ccc(Cl)cc3)(Cn3ccnc3)O2)cc1` [(2S,4R)-2-[2-(4-chlorophenyl)ethyl]-2-[(1H-imidazol-1-yl)methyl]-4-[(p-toluenesulfonyloxy)meth-yl]-1,3-dioxolane], the IC50 came to 17 ± 1 µM at HO-1 (rat spleen) and 120 ± 34 µM against HO-2 (rat brain).

For the compound `c1ccc(SCCCCn2ccnc2)cc1` [1-(4-phenylsulfanyl-butyl)-1H-imidazole hydrochloride], the results for the IC50 on HO-1 (rat spleen) (setting [1]) and at HO-2 (rat brain) (setting [2]) were 1.2 ± 0.2 µM and 5 ± 3 µM, respectively.

Values taken from patent US20140155445A1, “Compounds and Methods for Treating Cancer and Diseases of the Central Nervous System” (Osta Biotechnologies Inc., priority 2007, published 2014).
